# From patent US10646478B2, “Methods for treatment of melanoma” (CHILDREN'S MEDICAL CENTER CORPORATION, priority 2011, dated 2020)
# Key:
# [1] = tested on: neural crest stem cells (NCSCs) from fetal (E14.5) rat gut; test: Rat neural crest stem cell assays (self-renewal, colony size, differentiation); type: cell-based
# Protocol: Enteric NCSCs from the fetal (E14.5) rat gut were isolated using flow cytometry to select the 1%-2% of cells expressing the highest levels p75 and α4 integrin as previously described^9. Cells were plated at clonal density in two wells/treatment and cultured in self-renewal medium for 8 days in LEF, A771726 or the vehicle (DMSO) followed by differentiation medium+/−LEF, A771726 or DMSO for 6 days. Cultures were fixed in 4% PFA then stained with antibodies against peripherin, GFAP, and SMA to identify neurons (N), glia (G) and myofibroblasts (M) respectively (U=unstained cells). A total of 3 to 4 independent experiments were performed, and differences measured by ANOVA followed by Bonferonni posthoc comparison. Self-renewal medium contains: DMEM-low glucose, 15% Chick Embryo Extract (CEE), Penn/Strep (P/S), 1% N2 supplement, 2% B27 supplement, 110 nM Retinoic Acid, 50 μM 2-mercaptoethanol 20 ng/ml bFGF, and 20 ng/ml IGF-1. Differentiation medium is the same except it contains 1% CEE, 10 ng/ml bFGF and no IGF-1. Differences between groups were calculated using ANOVA followed by posthoc Sheffe.
# Dissociated fetal rat gut cells were plated at clonal density in non-adherent conditions in self-renewal medium with LEF, a77 or DMSO for 10 days^10. Three to five primary neurospheres per treatment were individually re-plated in adherent conditions with LEF, a77 or DMSO and after three days were dissociated into a single cell suspension using trypsin and collagenase IV. Dissociated cells from each neurosphere were re-plated in non-adherent conditions without LEF or a77 and after 10 days, the number of secondary neurospheres were counted and compared. To assess the number of multipotent primary and secondary neurospheres, a subset of neurospheres were plated adherently for 8 days in self-renewal medium followed by 6 days in differentiation medium. Cultures were fixed in 4% PFA and stained with antibodies against peripherin, GFAP, and SMA to identify neurons (N), glia (G) and myofibroblasts (M) respectively. A total of 5 independent experiments were analyzed, and the number of multipotent secondary neurospheres on a given day are normalized to the DMSO control wells, and differences calculated by ANOVA.
# [2] = tested on: pigmented melanocytes in spt5m806 embryos; test: Spt5 hypomorphic experiments: pigmentation in spt5m806 incross; type: in vivo, zebrafish; details: 3 uM
# Source text: This allele has only a mild pigment defect on its own. […] Embryos were scored at 48 hpf for pigmentation, scored as “unpigmented”, “light”, or “fully pigmented” as compared to untreated wells. Individual embryos were then genotyped for the spt5^m806 mutation as previously described^14. Kruskall-Wallis analysis was used to detect a difference between the genotyped groups.
# A375 melanoma cells = test: In vivo xenograft study of A375 cells in nude mice; design: species or system mouse; details: daily i.p.; PLX4720 2.5 mg/kg, Leflunomide 7.5 mg/kg; DMSO 7.4+/−1.3-fold
# Protocol: The A375 cell line was chosen for xenografts based on prior experience with PLX4720 in this line. Cells were grown to 60-70% confluence, trypsinized and 3.5×10^5 cells were transplanted into the right flank of nude mice in a volume of 200 ul. […] Tumors were measured with digital calipers on day 4, 7 and 12 and growth rate was compared to the tumor size on day 0. Growth rates were compared between DMSO, PLX, LEF or […] using ANOVA with repeated measures to identify significant interactions. For the day 12 data, differences between the groups were compared using ANOVA followed by posthoc Tukey's least-squared difference.
# A375 cells = test: Cell viability of melanoma cell line A375 (FIG. 28b); type: cell-based, human
# Source text: FIG. 28a, M481 cells. FIG. 28b, A375 cells. FIG. 28c, M405 cells. FIG. 28d, M528 cells. FIG. 28e, M715 cells.
# [3] = tested on: Human BRAFV600 (M491) cells; test: Human BRAFV600 (M491) primary melanoma xenografts in mice; type: in vivo, mouse; details: in combination with BRAFi and MEKi
# [4] = tested on: sox10, dct, ntl, gata1 expression; test: In situ hybridization for neural crest and non-neural crest lineage markers; details: zebrafish, in vivo
smiles,measurement,setting,value
Cc1oncc1C(=O)Nc1ccc(C(F)(F)F)cc1 [leflunomide],colony size reduced compared to controls,[1],18%
same,differentiation or survival of specific progeny,[1],no effect on differentiation or survival of specific progeny
same,number of self-renewing NCSCs from primary stem cell colonies,[1],27+/−5.35 % of controls
same,"embryos with few or no melanocytes, spt5m806 mutant",[2]; mutant embryos,99%
same,"embryos with few or no melanocytes, wild type",[2]; wild type embryos,0%
same,tumor growth at 12 days post-treatment,A375 melanoma cells,4.7+/−0.12 fold
same,cell survival of A375 cells,A375 cells,impair cell survival
same,tumor growth,[3],significantly impair tumor growth
same,expression of sox10 and dct (ISH),[4],reduced expression of sox10 and dct
same,intensity of mesoderm marker ntl and blood marker gata1 (ISH),[4],No significant difference is seen in intensity
